Like-named read-outs stand apart in the source and are kept apart here.
Columns and labels:
[1] = target: T1, full-length human α1D-adrenoceptor (Homo sapiens, UniProt P25100); assay: [3H]prazosin whole-cell competition binding, CHO-α1D cells
T1 sequence (P25100 1-572): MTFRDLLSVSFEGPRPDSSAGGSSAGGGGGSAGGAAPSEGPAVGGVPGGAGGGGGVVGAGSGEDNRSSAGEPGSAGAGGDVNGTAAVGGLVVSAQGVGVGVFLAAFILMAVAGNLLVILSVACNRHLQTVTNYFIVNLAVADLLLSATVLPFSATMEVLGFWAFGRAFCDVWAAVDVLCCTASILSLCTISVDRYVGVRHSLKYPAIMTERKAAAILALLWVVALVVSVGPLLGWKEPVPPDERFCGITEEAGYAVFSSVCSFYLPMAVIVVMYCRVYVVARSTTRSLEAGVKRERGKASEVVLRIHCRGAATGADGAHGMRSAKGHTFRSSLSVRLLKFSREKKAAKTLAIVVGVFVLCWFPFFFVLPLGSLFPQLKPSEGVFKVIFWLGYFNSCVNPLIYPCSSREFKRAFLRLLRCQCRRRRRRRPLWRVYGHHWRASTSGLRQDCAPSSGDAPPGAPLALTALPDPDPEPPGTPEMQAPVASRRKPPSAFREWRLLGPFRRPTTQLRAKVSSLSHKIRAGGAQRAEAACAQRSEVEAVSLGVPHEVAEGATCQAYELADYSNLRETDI

human α1B-adrenoceptor = target: T2, human α1B-adrenoceptor (Homo sapiens, UniProt P35368); assay: [3H]prazosin whole-cell competition binding, CHO-α1B cells; details: for Kd: single-component inhibition curve, given as log KD (negative), mean ± SE mean, read-out: Log KD α1B (converted)
T2 construct: CHO cells stably expressing either the full‐length human α1A, α1B, or α1D‐adrenoceptor
T2 sequence (P35368 1-520): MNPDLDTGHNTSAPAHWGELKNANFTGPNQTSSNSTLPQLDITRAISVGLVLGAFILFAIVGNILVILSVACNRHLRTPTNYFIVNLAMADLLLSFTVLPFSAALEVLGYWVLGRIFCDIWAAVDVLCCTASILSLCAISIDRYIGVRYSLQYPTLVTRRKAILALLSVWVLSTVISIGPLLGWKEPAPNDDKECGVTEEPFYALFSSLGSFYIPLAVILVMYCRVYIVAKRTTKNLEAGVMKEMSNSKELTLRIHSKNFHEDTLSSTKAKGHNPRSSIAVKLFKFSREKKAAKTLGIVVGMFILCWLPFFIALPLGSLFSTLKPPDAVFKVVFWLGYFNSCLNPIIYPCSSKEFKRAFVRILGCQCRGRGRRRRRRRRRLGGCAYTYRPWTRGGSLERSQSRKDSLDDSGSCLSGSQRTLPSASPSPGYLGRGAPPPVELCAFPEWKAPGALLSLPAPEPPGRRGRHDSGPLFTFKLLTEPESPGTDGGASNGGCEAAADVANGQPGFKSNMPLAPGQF

human α1A-adrenoceptor = target: T3, human α1A-adrenoceptor (Homo sapiens, UniProt P35348); assay: [3H]prazosin whole-cell competition binding, CHO-α1A cells; details: for Kd: read-out: Log KD α1A (converted); for selectivity α1A vs 1D / selectivity α1A vs α1B: ratio, 1 = no selectivity for a subtype over another
T3 construct: CHO cells stably expressing either the full‐length human α1A, α1B, or α1D‐adrenoceptor
T3 sequence (P35348 1-466): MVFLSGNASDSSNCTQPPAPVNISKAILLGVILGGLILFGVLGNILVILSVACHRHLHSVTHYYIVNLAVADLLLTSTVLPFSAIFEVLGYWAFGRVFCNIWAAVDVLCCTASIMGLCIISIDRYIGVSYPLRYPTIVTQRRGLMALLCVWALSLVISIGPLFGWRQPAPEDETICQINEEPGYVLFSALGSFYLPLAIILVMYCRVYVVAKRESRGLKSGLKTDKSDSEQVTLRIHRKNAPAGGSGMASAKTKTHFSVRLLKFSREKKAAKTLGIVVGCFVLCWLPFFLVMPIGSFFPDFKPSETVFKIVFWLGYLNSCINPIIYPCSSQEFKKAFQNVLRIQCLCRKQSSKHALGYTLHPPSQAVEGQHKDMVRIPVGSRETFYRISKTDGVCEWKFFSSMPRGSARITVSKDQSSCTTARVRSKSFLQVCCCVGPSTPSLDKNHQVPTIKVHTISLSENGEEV

[2] = Log KD α1D, single-component inhibition curve, given as log KD (negative), mean ± SE mean
[3] = ratio of KD values, higher α1D affinity (site 1 KD)
[4] = ratio, 1 = no selectivity for a subtype over another
[5] = ratio of KD values, higher α1A affinity, 1.0 under vs = none
[6] = ratio of KD values, printed under α1A = higher α1A affinity, 1.0 under vs = none
[7] = single-component inhibition curve, given as log KD (negative), mean ± SE mean
[8] = two-component inhibition curve, proportion of site 1
[9] = log KD from 3H-prazosin whole cell binding, CHO cells, mean ± s.e.mean

Structure (SMILES) | Kd [1, 2] | Selectivity ratio α1B vs α1D [1, 3] | selectivity α1B vs α1D (human α1B-adrenoceptor; [4]) | Kd (human α1B-adrenoceptor) | Selectivity ratio α1A vs α1D (human α1A-adrenoceptor; [5]) | Selectivity ratio α1A vs α1B (human α1A-adrenoceptor; [6]) | Kd (human α1A-adrenoceptor; [7]) | Selectivity ratio α1A vs α1B (human α1A-adrenoceptor) | Selectivity ratio α1A vs α1D (human α1A-adrenoceptor) | also measured
Cc1ccc(/N=C/N(C)/C=N/c2ccc(C)cc2C)c(C)c1 [Amitraz] |  |  | >12 |  |  |  | 3.02 µM | >33 fold | 2.8 fold | Kd [1]: 8.32 µM; Selectivity ratio α1B vs α1D [1]: >12 fold; IC50 (human α1B-adrenoceptor; read-out: Log IC50 α1B (converted)): > 100 µM
COc1ccccc1N1CCN(CCCNc2c(C)c(=O)n(C)c(=O)n2C)CC1 [5‐methyl‐urapidil] |  |  |  |  |  |  |  | 148 fold | 417 fold | Log KD α1D [1, 7]: −5.61 ± 0.07; Log KD α1B (human α1B-adrenoceptor): −6.06 ± 0.04; Selectivity ratio α1B vs α1D (human α1B-adrenoceptor): 2.8 fold; Log KD α1A (human α1A-adrenoceptor; [7]): −8.23 ± 0.05
CC(CN1c2ccccc2Sc2ccccc21)N(C)C (stereo not shown) [Promethazine] | 1.78 µM |  |  | 0.871 µM | 18 fold | 8.7 fold | 0.1 µM |  |  | Selectivity ratio α1B vs α1D (human α1B-adrenoceptor; ratio of KD values, higher α1B affinity, 1.0 under vs = none): 2.0 fold
Cc1nc2n(c(=O)c1CCN1CCC(c3noc4cc(F)ccc34)CC1)CCCC2O (stereo not shown) [Paliperidone] |  |  |  | 0.0437 µM |  |  | 0.00437 µM | 10 fold | 7.8 fold | Log KD α1D site 2 [1]: −5.57 ± 0.21; Selectivity ratio α1B vs α1D [1]: 1.3 fold; Kd ([1]; Log KD α1D site 1, high-affinity component of two-component curve, control, used for selectivity): 0.0339 µM; % site 1 α1D ([1]; percentage of inhibition through first component, control): 57.6 ± 4.9% site 1; % site 1 α1D [1, 8]: -7.47 ± 0.10 -5.57 ± 0.21 57.6 ± 4.9% site 1; selectivity α1B vs α1D (human α1B-adrenoceptor): 1.3
O=C1Nc2ccccc2C2=NC(CN3CCN(c4ccccc4)CC3)CN12 (stereo not shown) [2-PMDQ] |  |  |  |  |  |  |  |  |  | % site 1 α1D ([1]; share of site 1 in the two-component inhibition curve): 57.6 ± 2.8%; % site 1 α1D [1, 8]: 57.6 ± 2.8%; Log KD α1B (human α1B-adrenoceptor; [9]): -6.95 ± 0.05; Log KD α1A (human α1A-adrenoceptor; [9]): -8.19 ± 0.09
Cn1cc(C(F)(F)F)nc1-c1ccc(OCC(O)CNCCOc2ccc(O)c(C(N)=O)c2)cc1 (stereo not shown) [CGP 20712A] |  |  | >9.1 |  |  |  |  |  |  | Kd ([1]; Log KD α1D (apparent), apparent KD: maximum concentration inhibited most but not all specific binding, IC50 from extrapolated curve): 11 µM; Log IC50 α1B (human α1B-adrenoceptor; log IC50 bound): Log IC50>-4; Kd (human α1A-adrenoceptor; [9]): 11.7 µM; selectivity α1A vs 1D (human α1A-adrenoceptor): 1.1; selectivity α1A vs α1B (human α1A-adrenoceptor): >8.5

More lines, main results first:

Kd [1, 2] | Selectivity ratio α1B vs α1D [1, 3] | selectivity α1B vs α1D (human α1B-adrenoceptor; [4]) | Kd (human α1B-adrenoceptor) | Selectivity ratio α1A vs α1D (human α1A-adrenoceptor; [5]) | Selectivity ratio α1A vs α1B (human α1A-adrenoceptor; [6]) | Kd (human α1A-adrenoceptor; [7]) | Structure (SMILES) | Selectivity ratio α1A vs α1B (human α1A-adrenoceptor) | Selectivity ratio α1A vs α1D (human α1A-adrenoceptor) | also measured
4.68 µM | 4.8 fold | 4.8 | 22.4 µM | 2.8 fold | 13 fold | 1.66 µM | O=C1CCC(=O)N1C[C@H]1CC[C@H]2CN(c3ncccn3)CCN2C1 [Sunepitron] |  |  | 
9.55 µM | >10 fold | >10 |  |  | >4.0 fold | 25.1 µM | CCn1ccnc1CC1COc2ccccc2O1 (stereo not shown) [Imiloxan] |  |  | Selectivity ratio α1A vs α1D [1, 3]: 2.6 fold; selectivity α1A vs 1D (human α1A-adrenoceptor): 2.6
 | >4.6 fold | >4.6 |  | 6.9 fold | >32 fold | 31.6 µM | CCN1CCCC1CNC(=O)c1cc(S(N)(=O)=O)ccc1OC (stereo not shown) [Sulpiride] |  |  | Kd ([1]; Log KD α1D (apparent), app: top concentration inhibited most but not all specific binding, curve extrapolated): 219 ± 5.38 µM; selectivity α1A vs α1B (human α1A-adrenoceptor): >31
10.7 µM | 5.0 fold | 5.0 | 53.7 µM | 3.2 fold | 16 fold | 3.39 µM | CCC1(C2=NCCN2)Cc2ccccc2O1 (stereo not shown) [Efaroxan] |  |  | 
